Experimental data taken from patent US9169279B2, “Crystallization method and bioavailability” (THAR PHARMACEUTICALS, INC., priority 2009, dated 2015).
Like-named read-outs stand apart in the source and are kept apart here.

How the values were obtained:
[1] = Rat PK study: zoledronic acid in plasma after IV, oral gavage or intraduodenal dosing (LC/MS/MS); type: in vivo; conditions: male, Sprague-Dawley, read-out: Average plasma concentration of 3 rats
Description: (§1) This can be attributed to the fact that both animals have historically been used in the safety evaluation and PK screening studies and are recommended by appropriate regulatory agencies. […] Additional tests included ID administration in rats and administration of enteric coated capsules in dogs.
(§2) USA. Some animals have surgical catheters (jugular vein and intraduodenum) were implanted to the animals prior to the studies. Beagle dogs from Marshall Farms, N.Y., USA, weighing from (9-12 kg) were used in the studies presented herein. Surgical catheters (jugular vein) were implanted prior to the studies.
The dose of each rat was calculated on a per rat basis (not on an average weight of all the rats in the lot). • ii. Oral gavage administration: solid suspensions were administered. The dose of each rat was calculated on a per rat basis (not on an average weight of all the rats in the lot). […] Duodenal cannula administration: solid suspensions were administered. The dose of each rat was calculated on a per rat basis (not on an average weight of all the rats in the lot).
Two major groups of animals were selected for the study. • Group 1 consists of rat studies. […] Details of Group 1 Rat Dosing
Plasma was collected after centrifugation at 13,000 rpm for 5 min at 4° C. and immediately frozen and stored at −60 to −80° C. until analysis.

[2] = Dog PK study: zoledronic acid in serum after IV or oral capsule dosing, enteric or non-enteric coated, with or without excess coformer (LC/MS/MS); type: in vivo, Beagle dogs; conditions: beagle
Description: as §1, §2
The dose volume of each dog was adjusted based upon the average weight of the dog. • ii. […]
Blood samples were placed without the use of an anticoagulant and allowed to sit at room temperature for approximately 30 minutes. Samples were then centrifuged at a temperature of 4° C., at a speed of 13,000 rpm, for 5 minutes. Serum was collected and split into two aliquots and stored frozen (−80° C.) until analysis.
In this study, capsules of particulate materials (zoledronic:DL-lysine:water complex and excess pure DL-lysine).

[3] = other: intraduodenal (ID, duodenal cannula), 5 mg/kg

For `O=P(O)(O)C(O)(Cn1ccnc1)P(=O)(O)O` [Zoledronic acid, (1-hydroxy-2-imidazol-1-yl-1-phosphono-ethyl)phosphonic acid], the concentration at 0.083333 hour ([1]; iv, 0.5 mg/kg) was 3250 ng/mL, the concentration at 0.25 hour ([1]; iv, 0.5 mg/kg) was 1950 ng/mL and the concentration at 0.5 hour ([1]; iv, 0.5 mg/kg) was 1130 ng/mL. The concentration at 1 hour ([1]; iv, 0.5 mg/kg) was 404 ng/mL, the concentration at 2 hour ([1]; iv, 0.5 mg/kg) was 113 ng/mL and the concentration at 4 hour ([1]; iv, 0.5 mg/kg) was 30.5 ng/mL. For the same molecule, the concentration at 8 hour ([1]; iv, 0.5 mg/kg) was 10.7 ng/mL, the concentration at 24 hour ([1]; iv, 0.5 mg/kg) was 2.98 ng/mL and the concentration at 0.25 hour [1, 3] was 146 ng/mL. For the same molecule, the concentration at 0.5 hour [1, 3] was 110 ng/mL, the concentration at 1 hour [1, 3] was 47.4 ng/mL and the concentration at 2 hour [1, 3] was 12.9 ng/mL. The concentration at 4 hour [1, 3] was 3.85 ng/mL, the concentration at 8 hour [1, 3] was 0.97 ng/mL and the concentration at 24 hour [1, 3] was 0 ng/mL. The concentration at 0.25 hour ([1]; po, 5 mg/kg) was 330 ng/mL, the concentration at 0.5 hour ([1]; po, 5 mg/kg) was 267 ng/mL and the concentration at 1 hour ([1]; po, 5 mg/kg) was 139 ng/mL. The concentration at 2 hour ([1]; po, 5 mg/kg) was 47.7 ng/mL, the concentration at 4 hour ([1]; po, 5 mg/kg) was 11.8 ng/mL and the concentration at 8 hour ([1]; po, 5 mg/kg) was 2 ng/mL. It also gave a concentration at 24 hour ([1]; po, 5 mg/kg) of 0 ng/mL, a bioavailability ([2]; Leg 37: 63.1 mg Zoledronic, DL-lysine, and water complex with 1965.7 mg DL-lysine monohydrate, PO gelatin capsules) greater than 8% and a concentration at 0 h ([2]; intravenous, 0.12 mg/kg, Leg 18, 15 min IV infusion 0.12 mg/kg, saline solution, Time 0 hour (pre-dose), read-out: Average serum concentration of 5 dogs) of 0 ng/mL. For the same molecule, the concentration at 5 min ([2]; intravenous, 0.12 mg/kg, Leg 18, 15 min IV infusion 0.12 mg/kg, saline solution, Time 0.0833 hour, read-out: Average serum concentration of 5 dogs) was 309 ng/mL, the concentration at 10 min ([2]; intravenous, 0.12 mg/kg, Leg 18, 15 min IV infusion 0.12 mg/kg, saline solution, Time 0.1667 hour, read-out: Average serum concentration of 5 dogs) was 525 ng/mL and the concentration at 0.25 h ([2]; intravenous, 0.12 mg/kg, Leg 18, 15 min IV infusion 0.12 mg/kg, saline solution, Time 0.25 hour, read-out: Average serum concentration of 5 dogs) was 717 ng/mL. For the same molecule, the concentration at 25 min ([2]; intravenous, 0.12 mg/kg, Leg 18, 15 min IV infusion 0.12 mg/kg, saline solution, Time 0.4167 hour, read-out: Average serum concentration of 5 dogs) was 392 ng/mL, the concentration at 0.5 h ([2]; intravenous, 0.12 mg/kg, Leg 18, 15 min IV infusion 0.12 mg/kg, saline solution, Time 0.5 hour, read-out: Average serum concentration of 5 dogs) was 323 ng/mL and the concentration at 0.75 h ([2]; intravenous, 0.12 mg/kg, Leg 18, 15 min IV infusion 0.12 mg/kg, saline solution, Time 0.75 hour, read-out: Average serum concentration of 5 dogs) was 202 ng/mL. For the same molecule, the concentration at 1 h ([2]; intravenous, 0.12 mg/kg, Leg 18, 15 min IV infusion 0.12 mg/kg, saline solution, Time 1 hour, read-out: Average serum concentration of 5 dogs) was 133 ng/mL, the concentration at 1.25 h ([2]; intravenous, 0.12 mg/kg, Leg 18, 15 min IV infusion 0.12 mg/kg, saline solution, Time 1.25 hour, read-out: Average serum concentration of 5 dogs) was 93.2 ng/mL and the concentration at 1.5 h ([2]; intravenous, 0.12 mg/kg, Leg 18, 15 min IV infusion 0.12 mg/kg, saline solution, Time 1.5 hour, read-out: Average serum concentration of 5 dogs) was 69.1 ng/mL. It also gave a concentration at 2 h ([2]; intravenous, 0.12 mg/kg, Leg 18, 15 min IV infusion 0.12 mg/kg, saline solution, Time 2 hour, read-out: Average serum concentration of 5 dogs) of 38.4 ng/mL, a concentration at 4 h ([2]; intravenous, 0.12 mg/kg, Leg 18, 15 min IV infusion 0.12 mg/kg, saline solution, Time 4 hour, read-out: Average serum concentration of 5 dogs) of 9.14 ng/mL and a concentration at 8 h ([2]; intravenous, 0.12 mg/kg, Leg 18, 15 min IV infusion 0.12 mg/kg, saline solution, Time 8 hour, read-out: Average serum concentration of 5 dogs) of 3.24 ng/mL. For the same molecule, the concentration at 24 h ([2]; intravenous, 0.12 mg/kg, Leg 18, 15 min IV infusion 0.12 mg/kg, saline solution, Time 24 hour, read-out: Average serum concentration of 5 dogs) was 1.21 ng/mL, the concentration at 0.0333 hour ([2]; iv, 0.05 mg/kg, zoledronic acid in dog serum, Leg 1, IV 0.05 mg/kg, saline solution, Time 0.0333 hour, read-out: Average serum concentration of 5 dogs) was 413 ng/mL and the concentration at 0.0833 hour ([2]; iv, 0.05 mg/kg, zoledronic acid in dog serum, Leg 1, IV 0.05 mg/kg, saline solution, Time 0.0833 hour, read-out: Average serum concentration of 5 dogs) was 312 ng/mL. It also gave a concentration at 0.1667 hour ([2]; iv, 0.05 mg/kg, zoledronic acid in dog serum, Leg 1, IV 0.05 mg/kg, saline solution, Time 0.1667 hour, read-out: Average serum concentration of 5 dogs) of 229 ng/mL, a concentration at 0.25 hour ([2]; iv, 0.05 mg/kg, zoledronic acid in dog serum, Leg 1, IV 0.05 mg/kg, saline solution, Time 0.25 hour, read-out: Average serum concentration of 5 dogs) of 179 ng/mL and a concentration at 0.75 hour ([2]; iv, 0.05 mg/kg, zoledronic acid in dog serum, Leg 1, IV 0.05 mg/kg, saline solution, Time 0.75 hour, read-out: Average serum concentration of 5 dogs) of 75.9 ng/mL. The concentration at 1 hour ([2]; iv, 0.05 mg/kg, zoledronic acid in dog serum, Leg 1, IV 0.05 mg/kg, saline solution, Time 1 hour, read-out: Average serum concentration of 5 dogs) was 56.1 ng/mL, the concentration at 1.5 hour ([2]; iv, 0.05 mg/kg, zoledronic acid in dog serum, Leg 1, IV 0.05 mg/kg, saline solution, Time 1.5 hour, read-out: Average serum concentration of 5 dogs) was 30.4 ng/mL and the concentration at 2 hour ([2]; iv, 0.05 mg/kg, zoledronic acid in dog serum, Leg 1, IV 0.05 mg/kg, saline solution, Time 2 hour, read-out: Average serum concentration of 5 dogs) was 17.6 ng/mL. It also gave a concentration at 4 hour ([2]; iv, 0.05 mg/kg, zoledronic acid in dog serum, Leg 1, IV 0.05 mg/kg, saline solution, Time 4 hour, read-out: Average serum concentration of 5 dogs) of 4.29 ng/mL, a concentration at 8 hour ([2]; iv, 0.05 mg/kg, zoledronic acid in dog serum, Leg 1, IV 0.05 mg/kg, saline solution, Time 8 hour, read-out: Average serum concentration of 5 dogs) of 1.13 ng/mL and a concentration at 24 hour ([2]; iv, 0.05 mg/kg, zoledronic acid in dog serum, Leg 1, IV 0.05 mg/kg, saline solution, Time 24 hour, read-out: Average serum concentration of 5 dogs) of 0 ng/mL. For the same molecule, the concentration at 48 hour ([2]; iv, 0.05 mg/kg, zoledronic acid in dog serum, Leg 1, IV 0.05 mg/kg, saline solution, Time 48 hour, read-out: Average serum concentration of 5 dogs) was 0 ng/mL, the concentration at 0 h ([2]; iv, 0.12 mg/kg, Leg 38, 0.12 mg/kg IV, saline solution, 0 h, read-out: Average serum concentration of 4 dogs) was 0 ng/mL and the concentration at 5 min ([2]; iv, 0.12 mg/kg, Leg 38, 0.12 mg/kg IV, saline solution, 5 min, read-out: Average serum concentration of 4 dogs) was 288 ng/mL. It also gave a concentration at 10 min ([2]; iv, 0.12 mg/kg, Leg 38, 0.12 mg/kg IV, saline solution, 10 min, read-out: Average serum concentration of 4 dogs) of 542 ng/mL, a concentration at 0.25 h ([2]; iv, 0.12 mg/kg, Leg 38, 0.12 mg/kg IV, saline solution, 0.25 h, read-out: Average serum concentration of 4 dogs) of 711 ng/mL and a concentration at 20 min ([2]; iv, 0.12 mg/kg, Leg 38, 0.12 mg/kg IV, saline solution, 20 min, read-out: Average serum concentration of 4 dogs) of 529 ng/mL. For the same molecule, the concentration at 25 min ([2]; iv, 0.12 mg/kg, Leg 38, 0.12 mg/kg IV, saline solution, 25 min, read-out: Average serum concentration of 4 dogs) was 406 ng/mL, the concentration at 0.5 h ([2]; iv, 0.12 mg/kg, Leg 38, 0.12 mg/kg IV, saline solution, 0.5 h, read-out: Average serum concentration of 4 dogs) was 358 ng/mL and the concentration at 0.75 h ([2]; iv, 0.12 mg/kg, Leg 38, 0.12 mg/kg IV, saline solution, 0.75 h, read-out: Average serum concentration of 4 dogs) was 240 ng/mL.
